Data as given in patent US20060111305A1, “Metabolites of certain [1,4]diazepino[6,7,1-ij]quinoline derivatives and methods of preparation and use thereof” (Wyeth, priority 2004, published 2006).
Values joined by “and” are separate entries in the source; they are usually repeats but may differ in a detail not shown here. Equal entries are not always repeated. Where two headings read alike, the source gives them in different places.

Columns and labels:
[1] = M6 to DCDQ ratios in human urine, LC/MS (Table 35); format: in vivo, healthy human subjects
Description: (§1) Drug administration and specimen collection were performed in a randomized, double-blinded, placebo-controlled, ascending single dose study of the safety, tolerability, pharmacokinetics, and pharmacodynamics of DCDQ administered orally to healthy subjects and subjects with schizophrenia and schizoaffective disorder. The specimens were stored at approximately −70° C. until analysis for metabolite profiles and for ratios of carbamoyl glucuronide (M6) to DCDQ.
The 0-4, 4-12 and 12-24 hr urine samples from the same subjects in the single dose groups were analyzed for ratios of M6 to DCDQ. The internal standard was not used in the analysis of urine samples. The samples were diluted for 20-fold with a control urine sample and directly analyzed by LC/MS. To estimate M6-to-DCDQ ratios in human urine, control urine samples were spiked with 200 ng/mL of DCDQ and 1000, 5000, or 10000 ng/mL of DCDQ carbamoyl glucuronide, and were analyzed by LC/MS.
(§2) LC/MS System 3 was used for semi-quantitative analysis of metabolite M6 (DCDQ carbamoyl glucuronide) in plasma and urine samples. The HPLC equipment for this LC/MS System consisted of a Thermo Surveyor HPLC (Thermo Electron Corp., San Jose, Calif.), including a Surveyor MS pump and autosampler. Separations were accomplished on a 5 micron Phenomenex Luna C18(2) column, 150×2 mm (Phenomenex, Torrance, Calif.). The autosampler and column temperatures were set at 5° C. and 40° C., respectively. The HPLC mobile phase consisted of 10 mM ammonium acetate (A) and methanol (B), and was delivered at 0.2 mL/min. The linear mobile phase gradient (HPLC Gradient 2) is shown below. During LC/MS sample analysis, up to 3 min of the initial flow was diverted away from the mass spectrometer prior to evaluation of metabolites.
(§3) The mass spectrometer used for semi-quantitative anslysis with LC/MS System 3 was a Finnigan TSQ Quantum triple quadrupole mass spectrometer (Thermo Electron Corp.). The mass spectrometer was equipped with an electrospray interface and operated in the positive ionization mode. Settings for this mass spectrometer are listed below.
(§4) LC/MS/MS analysis in the selected reaction monitoring (SRM) mode (LC/SRM) was conducted for DCDQ and M6 using the following settings.

[2] = Concentrations of DCDQ and DCDQ carbamoyl glucuronide (M6) in human plasma, LC/SRM (Table 34); format: in vivo, healthy human subjects; settings: for concentration at 6 h / concentration at 12 h / concentration at 24 h: human, plasma, oral, read-out: M6 concentration in plasma
Description: as §1
Plasma samples from fasted subjects 25, 28 and 30 in the 50 mg single dose group, fasted subjects 50, 51, 54 in the 200 mg single dose group, fasted subjects 74, 76, 79 in the 300 mg single dose group, fed subjects 83, 84, 86 in the 300 mg single dose group and fasted subjects 92, 94, 96 in the 500 mg single dose group were analyzed for DCDQ carbamoyl glucuronide (M6) concentrations. The internal standard d8-DCDQ (25 μL of 200 ng/mL methanol solution) was added to 100 μL of the plasma samples, followed by the addition of 300 μL of acetonitrile. The samples were mixed and centrifuged at 14000 rpm in an Eppendorf 5415C centrifuge (Brinkman Instruments Inc., Westbury, N.Y.) for 10 minutes. The supernatant of each sample was transferred to a clean tube and evaporated to dryness under a stream of nitrogen in a TurboVap LV evaporator (Caliper Life Sciences, Hopkinton, Mass.). The residue was reconstituted with 50 μL of methanol followed by the addition of 150 μL of water. The sample was mixed and centrifuged as described above. The supernatant was analyzed by LC/MS/MS analysis. Samples for standard curves were prepared with control plasma spiked with synthetic M6. The concentrations of M6 used for the standard curve ranged from 0 to 2500 ng/mL plasma.
as §2, §3, §4
The computer program Microsoft Excel® 97 was used to calculate means and standard deviations and to perform the student t-test. Xcalibur (version 1.3) and MassLynx software (version 4.0) were used for collection and analysis of LC/MS data. Peak area ratios of M6 to the internal standard were used for quantitation of M6 in plasma samples.

[3] = 50 mg, 50 mg (fasted), Mean ± S.D.
[4] = 50 mg, 50 mg (fasted), individual subjects
[5] = 200 mg, 200 mg (fasted), Mean ± S.D.
[6] = 300 mg, 300 mg (fasted), Mean ± S.D.

Compound: O=C(O)[C@H]1O[C@@H](OC(=O)N2CCN3C[C@@H]4CCC[C@@H]4c4cccc(c43)C2)[C@H](O)[C@@H](O)[C@@H]1O [Metabolite M6, carbamoyl glucuronide of DCDQ]
- M6 to DCDQ Ratios ([1]; 50 mg (fasted), 0-4 hr, Mean ± S.D.): 841 ± 798
- M6 to DCDQ Ratios ([1]; 50 mg (fasted), 0-4 hr, individual subjects): 214 and 571 and 1739
- M6 to DCDQ Ratios ([1]; 50 mg (fasted), 4-12 hr, Mean ± S.D.): 419 ± 174
- M6 to DCDQ Ratios ([1]; 50 mg (fasted), 4-12 hr, individual subjects): 389 and 606 and 261
- M6 to DCDQ Ratios ([1]; 50 mg (fasted), 12-24 hr, Mean): 155 ± 98.1
- M6 to DCDQ Ratios ([1]; 50 mg (fasted), 12-24 hr, individual subjects): 143 and 259 and 63.9
- M6 to DCDQ Ratios ([1]; 200 mg (fasted), 0-4 hr, Mean ± S.D.): 151 ± 32.9
- M6 to DCDQ Ratios ([1]; 200 mg (fasted), 0-4 hr, individual subjects): 169 and 171 and 113
- M6 to DCDQ Ratios ([1]; 200 mg (fasted), 4-12 hr, Mean ± S.D.): 284 ± 98.7
- M6 to DCDQ Ratios ([1]; 200 mg (fasted), 4-12 hr, individual subjects): 397 and 240 and 215
- M6 to DCDQ Ratios ([1]; 200 mg (fasted), 12-24 hr, Mean ± S.D.): 115 ± 90.4
- M6 to DCDQ Ratios ([1]; 200 mg (fasted), 12-24 hr, individual subjects): 216 and 85.9 and 42.3
- M6 to DCDQ Ratios ([1]; 300 mg (fasted), 0-4 hr, Mean ± S.D.): 820 ± 365
- M6 to DCDQ Ratios ([1]; 300 mg (fasted), 0-4 hr, individual subjects): 1167 and 852 and 440
- M6 to DCDQ Ratios ([1]; 300 mg (fasted), 4-12 hr, Mean ± S.D.): 732 ± 702
- M6 to DCDQ Ratios ([1]; 300 mg (fasted), 4-12 hr, individual subjects): 329 and 1543 and 324
- M6 to DCDQ Ratios ([1]; 300 mg (fasted), 12-24 hr, Mean ± S.D.): 241 ± 212
- M6 to DCDQ Ratios ([1]; 300 mg (fasted), 12-24 hr, individual subjects): 485 and 127 and 110
- M6 to DCDQ Ratios ([1]; 300 mg (fed), 0-4 hr, Mean ± S.D.): 1018 ± 520
- M6 to DCDQ Ratios ([1]; 300 mg (fed), 0-4 hr, individual subjects): 1162 and 441 and 1451
- M6 to DCDQ Ratios ([1]; 300 mg (fed), 4-12 hr, Mean ± S.D.): 761 ± 508
- M6 to DCDQ Ratios ([1]; 300 mg (fed), 4-12 hr, individual subjects): 375 and 571 and 1337
- M6 to DCDQ Ratios ([1]; 300 mg (fed), 12-24 hr, Mean ± S.D.): 142 ± 46.0
- M6 to DCDQ Ratios ([1]; 300 mg (fed), 12-24 hr, individual subjects): 148 and 92.6 and 184
- M6 to DCDQ Ratios ([1]; 500 mg (fasted), 0-4 hr, Mean ± S.D.): 97.6 ± 55.2
- M6 to DCDQ Ratios ([1]; 500 mg (fasted), 0-4 hr, individual subjects): 71.5 and 60.2 and 161
- M6 to DCDQ Ratios ([1]; 500 mg (fasted), 4-12 hr, Mean ± S.D.): 84.3 ± 58.6
- M6 to DCDQ Ratios ([1]; 500 mg (fasted), 4-12 hr, individual subjects): 149 and 34.6 and 69.4
- M6 to DCDQ Ratios ([1]; 500 mg (fasted), 12-24 hr, Mean ± S.D.): 176 ± 128
- M6 to DCDQ Ratios ([1]; 500 mg (fasted), 12-24 hr, individual subjects): 288 and 36.0 and 203
- differences in M6 concentrations and M6 to DCDQ ratios between fasted and fed subjects ([2]; 300 mg of DCDQ): no statistically significant differences
- concentration at 6 h [2, 3]: 114 ± 26.9 ng/mL
- concentration at 6 h [2, 4]: 127 ng/mL
- concentration at 12 h [2, 3]: 12.4 ± 5 ng/mL
- concentration at 24 h ([2]; 50 mg, 50 mg (fasted), Mean (standard deviation not calculated)): 3.35 ng/mL
- concentration at 24 h [2, 4]: 3.1 ng/mL
- concentration at 6 h [2, 5]: 352 ± 228 ng/mL
- concentration at 12 h [2, 5]: 43.6 ± 17.1 ng/mL
- concentration at 24 h [2, 5]: 7.67 ± 2.5 ng/mL
- concentration at 24 h ([2]; 200 mg, 200 mg (fasted), individual subjects): 4.8 ng/mL
- concentration at 6 h [2, 6]: 237 ± 108 ng/mL
- concentration at 12 h [2, 6]: 88.7 ± 51.8 ng/mL
- concentration at 24 h [2, 6]: 28.9 ± 18.4 ng/mL
